The results in this text go back to US9480754B2, “Phospholipid ether analogs as cancer-targeting drug vehicles” (Cellectar Biosciences, Inc., priority 2014, dated 2016).

Structures are written as SMILES.

For series [1], the system named is non-small cell lung carcinoma (NSCLC). The experiment in a line: Clinical imaging of advanced NSCLC patients with 131I-CLR1404. It is filed as in vivo, human. The note with it: two patients, injection of <1 mCi 131I-CLR1404, gamma imaging. Here is the method: To date, two patients with advanced NSCLC were imaged after an injection of <1 mCi of ^131I-CLR1404. Blood and urine samples were collected at predetermined times, and gamma imaging performed at several time points following administration.
Materials and Methods: Following intravenous injection of iodine-131 labeled CLR1404 (1 mCi/20 μg), patients with advanced NSCLC where scanned at 3, 6, 24, 48, 96 h and at 7 and 11 days on a GE Maxxus dual Head SPECT scanner. Blood and urine samples were collected for pharmacokinetic analysis as well as clinical hematologic, renal, and hepatic bioanalysis.

The nature of series [2]: CLR1404 tumor selectivity across 60 tumor models. It is filed as in vivo, rodent. The conditions noted are these: athymic nude (Hsd:Athymic Nude-Foxn1nu or Crl:NU-Foxn1nu), tumor, intravenous; xenograft, orthotopic, transgenic and spontaneous rodent models; read-out: tumor models showing selective uptake and prolonged retention. Here is the method:
All described animal studies were performed according to animal protocols approved by the Institutional Animal Care and Use Committee. Female athymic nude mice (Hsd:Athymic Nude-Foxnlnu or Crl:NU-Foxnlnu, Charles River Laboratories) about 4 to 5 weeks of age, 16 to 18 g (n=6), were used for human tumor xenograft studies. Mice were anesthetized with isoflurane and injected subcutaneously with viable tumor cells in 100 μl of Dulbecco's PBS (or, for glioma cells, […] of PBS) into the right flank. Inoculum sizes were 1×10^6 (for renal, ovarian, glioma, pancreatic, prostate, and NSCLC models), […] (for colorectal and uterine models), or 3×10^6 (breast).
Radioiodinated ^124I-CLR1404 was tested in subcutaneous and orthotopic xenografts of 60 different spontaneous, transgenic, human, and rodent malignant cell lines and tumor types. […] Representative examples are of both human (FIG. 5A-5I) and rodent (FIG. 5J-M) tumors.

The test system of series [3] is human RL-251 tumor xenograft. Briefly: Retention of 131I-CLR1404 by RL-251 tumor xenograft. It is filed as in vivo, SCID mouse. The note with it: FIG. 3. The text has this:
FIG. 3. Prolonged retention of ^131I-CLR1404 by human RL-251 tumor xenograft in SCID mouse.
CLR1404 is a PLE. Results obtained in a variety of tumor models indicate that CLR1404 is sequestered and selectively retained by cancer cells and cancer stem cells. […] CLR1404 localizes in both primary and metastatic lesions regardless of anatomic location including those found in lymph nodes. See Examples 3-8.

Series [4] has as its system PC-3 (Prostate). The experiment in a line: Cell viability IC50, PC-3. It is filed as cell-based. The protocol: The cell lines were then measured for cell viability and reported as IC50 for each treatment.
Series [5] relates to MDA-MB-468 cells. Briefly: Annexin V/PI flow cytometry, MDA-MB-468. The conditions noted are these: 48 hrs. It is filed as cell-based.
In series [6] the test system is MDA-MB-468 cells. Briefly: Annexin V/PI flow cytometry, MDA-MB-468. It is filed as cell-based. The note with it: table title 72 hours, text: paclitaxel for 24 hours. Here is the method: Debris was eliminated from this analysis.
MDA-MB-468 cells, were also treated with CLR conjugates (CLR1606 and CLR1607) for 72 hours and with geldanamycin (“GEL”) for 48 hours.
CLR conjugates appear to require a longer treatment period with cells to induce cell death.

The term IC50 denotes the concentration that inhibits the measured activity by half. Low values mean greater potency, high ones weaker potency.

Regarding `C[N+](C)(C)CCOP(=O)([O-])OCCCCCCCCCCCCCCCCCCc1ccc(I)cc1` [CLR1404, 18-(p-Iodophenyl)octadecyl phosphocholine], the “tumor uptake and retention in the primary lung tumor” value in series [1] is “significant tumor uptake and retention”. In series [2], the number of tumor models with selective uptake is above 55. In series [3], the “time remaining in cancer cells” value was “up to 20 days”.
Take `CC(=O)O[C@H]1C(=O)[C@@]2(C)[C@H]([C@H](OC(=O)c3ccccc3)[C@]3(O)C[C@H](OC(=O)[C@H](O)[C@@H](NC(=O)c4ccccc4)c4ccccc4)C(C)=C1C3(C)C)[C@]1(OC(C)=O)CO[C@@H]1C[C@@H]2O` [Paclitaxel, paclitaxel, reference compound]: it took 0.9 nM to reach half-maximal inhibition in series [4] (IC50). Moreover, the Live in series [5] (MDA-MB-468, 100 nM) is listed as 77.9 % of total cells; in series [5] (MDA-MB-468, 1 uM), 73.3 % of total cells; in series [6] (MDA-MB-468, PTX 100 nM), 53.8 % of total cells; in series [6] (MDA-MB-468, PTX 1 uM) it was 48.9 % of total cells.
